What was measured:
[1] = tested on: plasma membrane NADH oxidase; conditions: addition at 0.1 µM; normal rat liver plasma membrane vesicles; no addition 0.72 ± 0.06; cited from earlier work
[2] = tested on: FIV-infected Crandall feline leukemia cells; test: Growth of FIV-infected cells; format: cell-based; conditions: Felis catus, read-out: concentration inhibiting growth
Procedure: (§1) The antisera were conjugated to adriamycin through an activated carboxyl of the antibody to the amine of adriamycin free base using 2-isobutoxyl-1-isobutoxycarbonyl-1,2-dihydroxyquinoline, where the antibody was bound to an Ag-BSA sepharose affinity column. The concentration of drug conjugated was determined spectroscopically and was tested initially at a concentration of 0.2 µM on the growth of FIV-infected and -uninfected Crandall feline leukemia cells.

[3] = target: T1, plasma membrane NADH oxidase activity from RLT-N hepatoma (Rattus norvegicus, UniProt D3Z9Z5); test: Spectrophotometric NADH oxidase assay, rat hepatoma plasma membranes; format: biochemical
T1 sequence (D3Z9Z5 1-606): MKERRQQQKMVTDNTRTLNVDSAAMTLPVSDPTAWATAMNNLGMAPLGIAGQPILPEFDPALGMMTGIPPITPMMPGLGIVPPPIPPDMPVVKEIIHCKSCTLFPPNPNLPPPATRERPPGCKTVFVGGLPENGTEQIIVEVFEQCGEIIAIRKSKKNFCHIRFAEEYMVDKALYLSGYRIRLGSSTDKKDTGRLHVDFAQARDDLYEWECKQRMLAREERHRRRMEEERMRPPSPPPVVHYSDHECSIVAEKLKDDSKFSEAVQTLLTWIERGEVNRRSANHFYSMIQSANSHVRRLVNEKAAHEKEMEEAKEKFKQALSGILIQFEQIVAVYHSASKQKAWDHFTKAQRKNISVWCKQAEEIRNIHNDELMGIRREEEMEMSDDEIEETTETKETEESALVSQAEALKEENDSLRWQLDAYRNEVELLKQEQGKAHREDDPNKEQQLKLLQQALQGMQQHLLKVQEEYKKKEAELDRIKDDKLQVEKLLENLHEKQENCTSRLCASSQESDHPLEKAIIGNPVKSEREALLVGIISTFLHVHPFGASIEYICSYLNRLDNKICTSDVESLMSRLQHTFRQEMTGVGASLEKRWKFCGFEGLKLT
Procedure: (§2) Spectrophometric assay of NADH oxidase. NADH oxidase activity was determined as the disappearance of NADH measured at 340 nm in a reaction mixture containing 25 mM Tris-MES buffer (pH 7.2), 1 mM KCN to inhibit the low levels of contaminating mitochondrial oxidase activity, and 150 µM NADH at 37°C with constant stirring. Activity was measured using a Hitachi U3210 spectrophotometer with continuous recording over two intervals of 5 min each. A millimolar extinction coefficient of 6.22 was used to determine specific activity.

HL-60 cells [4] = test: Ascorbate radical assay of electron flow released from cells; format: cell-based, human; conditions: 0.2 mM ascorbate
Procedure: Of particular interest is employing an electron acceptor in the assay for NADH oxidase, conveniently ascorbate radical, where one may follow the rate of disappearance of the ascorbate radical under the conditions of the assay. One can measure the reduction of ascorbate free radical at 265 nm employing a spectrophotometer as described by Winkler (1987) Biochim. et Biophys. Acta 925:258-264. One may use intact cells suspended in a convenient buffer medium containing ascorbate, incubating the cell suspension and then following the reduction of the ascorbate as described above. See, also, Alcain et al. (1991) Biochim. et Biophys. Acta 1073:380-385 and Navas et al. (1992) FEBS Letters 299:223-226.
Under these conditions, electron flow is inhibited by adriamycin at concentrations where growth is inhibited in adriamycin susceptible HL-60 cells, but not inhibited with adriamycin-resistant cells, where growth also is not inhibited. These inhibitions with susceptible cells were observed without perceptible lag. Also the response was observed without preincubation with adriamycin.

[5] = tested on: circulating NADH oxidase in the serum; test: NADH oxidase activity of human serum; format: biochemical; conditions: adriamycin
Procedure: as §2

[6] = tested on: plasma membrane NADH oxidase; test: Spectrophotometric NADH oxidase assay, rat liver plasma membranes (normal cells); format: biochemical
Procedure: Purification of plasma membranes from rat liver. A 5000 x g pellet from the preparation of Golgi apparatus (Morré (1971) Meth. Enzymol. 22, 130-148) was the starting material. The fluffy layer which contains the Golgi apparatus fraction was mixed, withdrawn and excluded from the plasma membrane preparations. Cold 1 mM NaHCO3 (5 ml) was added to each tube and the friable yellow-brown upper part of the pellet was resuspended with a pen-brush, leaving the reddish tightly packed bottom part of the pellet undisturbed. The resuspended material was homogenized in aliquots of 5 ml each in a 30 ml stainless steel homogenizer (Duragrind) 20 times by hand. The homogenates were combined, diluted with cold 1 mM NaHCO3 (1:1 dilution), and centrifuged at 6000 x g in a HB rotor for 15 min. The supernatant was discarded and the pellet was used for the two-phase separation (Morré & Morré (1989) BioTechniques 7:946-958).
The two-phase system contained 6.4% (w/w) Dextran T-500 (Pharmacia), 6.4% (w/w) polyethylene glycol) 3350 (Fisher), and 5 mM potassium phosphate buffer (pH 7.2) (Morré & Morré, 1989, supra). The homogenate (1 g) was added to the two-phase system and the weight of the system was brought to 8 g with distilled water. The tubes were inverted vigorously for 40 times in the cold (4°C). The phases were separated by centrifugation at 750 rpm (150 x g) in a Sorvall HB 4 rotor for 5 min. The upper phases were carefully withdrawn with a pasteur pipette, divided in half and transferred into 40 ml plastic centrifuge tubes and diluted with cold 1 mM NaHCO3. The purified plasma membranes were collected by centrifugation at 10,000 x g in a HB rotor for 30 min. Plasma membrane pellets were resuspended in 50 mM Tris-Mes buffer (pH 7.2) and stored at -70°C. Proteins were determined using the bicinchoninic acid (BCA) assay (Smith et al. (1985) Anal. Biochem. […]: 76-85) with bovine serum albumin as standard.
as §2

[7] = tested on: uninfected Crandall feline leukemia cells; test: Growth of uninfected cells; format: cell-based; conditions: Felis catus; normal cells; read-out: concentration inhibiting growth
Procedure: as §1

[8] = tested on: NADH oxidase activity of serum; test: NADH oxidation by rat serum samples; format: biochemical; conditions: +0.25 µM adriamycin
Procedure: as §2

HL-60 cells [9] = test: Growth of HL-60 cells in suspension; format: cell-based, human
[10] = tested on: NADH oxidase activity of plasma membranes of HL-60 cells; test: NADH oxidase assay, HL-60 plasma membranes; format: biochemical, human
Procedure: as §2

[11] = target: T2, NADH oxidase from HeLa cell plasma membranes (Homo sapiens, UniProt Q16206); test: Spectrophotometric NADH oxidase assay, HeLa plasma membranes; format: biochemical; conditions: HeLa plasma membranes
T2 sequence (Q16206 1-610): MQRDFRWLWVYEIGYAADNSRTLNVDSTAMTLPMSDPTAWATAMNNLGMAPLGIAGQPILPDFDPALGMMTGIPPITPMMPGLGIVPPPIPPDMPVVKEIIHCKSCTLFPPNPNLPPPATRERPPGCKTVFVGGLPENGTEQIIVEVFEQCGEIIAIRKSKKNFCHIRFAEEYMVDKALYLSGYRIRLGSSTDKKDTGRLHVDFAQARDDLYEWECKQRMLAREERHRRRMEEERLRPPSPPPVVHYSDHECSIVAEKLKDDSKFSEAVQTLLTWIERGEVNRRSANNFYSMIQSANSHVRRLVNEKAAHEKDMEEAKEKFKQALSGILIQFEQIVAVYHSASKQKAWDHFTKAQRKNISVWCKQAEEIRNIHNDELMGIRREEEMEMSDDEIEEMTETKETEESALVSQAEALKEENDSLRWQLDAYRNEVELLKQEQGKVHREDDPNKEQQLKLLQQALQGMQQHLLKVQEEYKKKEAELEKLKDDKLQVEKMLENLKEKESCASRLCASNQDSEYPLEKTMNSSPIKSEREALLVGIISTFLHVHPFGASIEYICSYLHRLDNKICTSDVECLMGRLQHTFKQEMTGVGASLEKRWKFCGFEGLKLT
Procedure: Purification of plasma membranes from HeLa cells. HeLa cells were grown as suspension cultures in minimum essential medium (MEM) supplemented with horse serum, diferric transferrin and heparin. Cells were collected by centrifugation for 6 to 15 min at 1,000 to 3,000 rpm. The cell pellets were resuspended in 0.2 mM EDTA in 1 mM NaHCO3 in an approximate ratio of 1 ml per 10^8 cells and incubated on ice for 10 to 30 min to swell the cells. Homogenization was with a Polytron Homogenizer for 30 to 40 sec at 10,500 rpm using a PT-PA 3012/23 or ST-probe in 7 to 8 ml aliquots. To estimate breakage, the cells are monitored by light microscopy before and after homogenization. […]
The homogenates were centrifuged for 10 min at 1,000 rpm (175 g) to remove unbroken cells and nuclei and the supernatant was centrifuged a second time at 1.4 x 10^6 g min (e.g. 1 h at 23,500 g) to prepare a plasma membrane enriched microsome fraction. […] The purity of the plasma membrane was determined to be > 90% by electron microscope morphometry. […]
Spectrophometric assay of NADH oxidase. NADH oxidase activity was determined as the disappearance of NADH measured at 340 nm in a reaction mixture containing 25 mM Tris-MES buffer (pH 7.2), 1 mM KCN to inhibit the low levels of contaminating mitochondrial oxidase activity, and 150 µM NADH at 37°C with constant stirring. […]

C=C1/C(=C\C=C2/CCC[C@]3(C)[C@@H]([C@H](C)CCCC(C)(C)O)CC[C@@H]23)C[C@@H](O)C[C@@H]1O [Calcitrol]
NADH oxidase [1]: 0.16 ± 0.04 nmoles/min/mg protein

COc1cccc2c1C(=O)c1c(O)c3c(c(O)c1C2=O)C[C@@](O)(C(=O)CO)C[C@@H]3O[C@H]1C[C@H](N)[C@H](O)[C@H](C)O1 [adriamycin]
minimal effective concentration [2]: ≥ 10 µM | inhibition at 0.1 µM ([3]; 0.1 µM adriamycin, hepatoma plasma membranes): 40% | inhibition of electron flow (in words) (HL-60 cells [4]; adriamycin susceptible HL-60 cells): inhibited | inhibition of electron flow (in words) (HL-60 cells [4]; adriamycin-resistant cells): not inhibited | effect on change in absorbance (in words) ([5]; sera from 12 normal individuals): consistently stimulated | effect on activity (in words) ([5]; sera from the 18 cancer patients): inhibited with 17 of the samples and unchanged in one | inhibition of growth factor-stimulated NADH oxidase activity ([6]; 0.1 µM adriamycin, activity stimulated by epidermal growth factor (EGF)): inhibited completely | inhibition of NADH oxidase activity ([6]; 0.1 µM adriamycin, liver plasma membranes): uninhibited | IC50 ([6]; plasma membranes from rat liver, normal cells, read-out: ED50 for inhibition of NADH oxidase activity): ~7 µM | minimal effective concentration [7]: ≥ 10 µM | Relative rates of NADH oxidation ([8]; serum from normal rats, no adriamycin 1.7 ± 0.1): 1.75 ± 0.05 | Relative rates of NADH oxidation ([8]; serum from rats bearing an RLT-28 tumor, no adriamycin 1.0 ± 0.1): 0.35 ± 0.05 | inhibition of growth (in words) (HL-60 cells [9]; HL-60 cells, adriamycin susceptible, not differentiated): inhibited | inhibition of growth (in words) (HL-60 cells [9]; adriamycin-resistant cells): not inhibited | inhibition of NADH oxidase activity (in words) ([10]; adriamycin-resistant HL-60 cells): not inhibited | inhibition of NADH oxidase activity (in words) ([10]; normal, adriamycin-susceptible HL-60 cells): inhibited

CCCCCCCCCC[C@H](O)[C@H]1CC[C@H]([C@H]2CC[C@H]([C@H](O)CCCCCCCCCC[C@@H](O)CC3=C[C@H](C)OC3=O)O2)O1 [bullatacin]
inhibition of NADH oxidase activity (in words) [11]: inhibition

simalikalactone D [similikalactone D]
inhibition of NADH oxidase activity (in words) ([3]; final concentration of 0.4 µM prepared in DMSO, equivalent DMSO without effect): inhibited

Reference: patent EP0752872B1, “NADH OXIDASE AS A TARGET IN DIAGNOSIS AND THERAPY” (Morré, D. James, priority 1994, dated 1995)
